Measurements as given in article PMC6801739, “Antitumor Activity of a Novel Tyrosine Kinase Inhibitor AIU2001 Due to Abrogation of the DNA Damage Repair in Non-Small Cell Lung Cancer Cells” (International Journal of Molecular Sciences, 2019).

Tests used:
Type in all cases: cell-based, human
A549 cells [1] = assay: qPCR of DNA damage repair genes and STAT5 mRNA; settings: 24 h
Source text: (§1) RNA was extracted using TRIzol® RNA isolation reagent (ThermoFisher Scientific). RNA was reverse-transcribed into cDNA using the M-MLV reverse transcriptase (Enzynomics, Daejeon, Korea) and RNase inhibitor (Promega, Madison, WI, USA). The sequence of the primers targeting human BRCA1, BRCA2, RAD51, BARD1, XRCC6, and XRCC5 are as follows: BRCA1 sense 5′-[…]-3′, BRCA1 antisense 5′-[…]-3′, BRCA2 sense 5′-[…]-3′, BRCA2 antisense 5′-[…]-3′, RAD51 sense 5′-[…]-3′, RAD51 antisense 5′-[…]-3′, BARD1 sense 5′-[…]-3′, BARD1 antisense 5′-[…]-3′, XRCC6 sense 5′-[…]-3′, XRCC6 antisense 5′-[…]-3′, XRCC5 sense 5′-[…]-3′,and XRCC5 antisense 5′-[…]-3′. β-actin was used as a housekeeping gene for normalization. The cDNA was quantified using real-time PCR with SYBR Green/fluorescein qPCR master mix (ThermoScientific, Carlsbad, CA, USA) on a Lightcycler 96 system (Roche Diagnostics, Mannheim, Germany) according to the manufacturer’s protocol.

H1299 cells [2] = assay: qPCR of DNA damage repair genes and STAT5 mRNA; settings: 24 h
Source text: as §1

A549 cells [3] = assay: MTT cell viability assay, single drugs and combinations, CI scores
Experimental: (§2) Cell viability was assessed using the MTT colorimetric assay. Cells (1 × 10^3 cells/well) were seeded into 96-well plates and treated with the various concentrations of each compound or combination of two compounds. After five days of treatment, 10 μL MTT (0.5 mg/mL) was added, and further incubated for 3 h. After removal of the supernatant, the resultant pellet was dissolved in DMSO. The absorbance of the resultant formazan was measured at 540 nm using a plate reader (Multiskan EX; ThermoLabsystems, Waltham, MA, USA).
(§3) CI scores were calculated using the CompuSyn software by Chou (CompuSyn Inc., Paramus, NJ) based on cell viability after treatment with single- and paired-drug concentrations. The CI equation for two drugs was used: CI=(D)A/(Dx)A+(D)B/(Dx)B where (Dx)A is the concentration of drug A alone that inhibits x%, (Dx)B is the concentration of drug B alone that inhibits x%, (D)A or (D)B is the portion of drug A or drug B in the combination (D)A + (D)B that inhibits x%.

H1299 cells [4] = assay: as above
Experimental: as §2, §3

BEAS2B cells = assay: MTT cell viability assay; settings: BEAS2B normal bronchial epithelial cells, five days
Experimental: as §2

CCD18-Lu cells = assay: MTT cell viability assay; settings: CCD18-Lu lung fibroblast cells, five days
Experimental: as §2

H460 cells = assay: MTT cell viability assay; settings: five days
Experimental: as §2

Q: `CC(C)(C)c1cc(NC(=O)Nc2ccc(-c3cn4c(n3)sc3cc(OCCN5CCOCC5)ccc34)cc2)no1` [quizartinib, reference compound] was tested. Which “Expression level of STAT5 mRNA” value (A549 cells [1]) did it give?
A: decreased the expression

Q: And the “mRNA levels of HR (BRCA1, BRCA2, BARD1, RAD51) and NHEJ (XRCC5, XRCC6) genes” value (A549 cells [1])?
A: decreased the expression

Q: And the “Expression level of STAT5 mRNA” value (H1299 cells [2])?
A: decreased the expression

Q: And the “mRNA levels of HR (BRCA1, BRCA2, BARD1, RAD51) and NHEJ (XRCC5, XRCC6) genes” value (H1299 cells [2])?
A: decreased the expression

Q: And the viability at 0.16 µM (A549 cells [3]; Homo sapiens, 120 h, Olaparib 0, Quizartinib 0.16 μM, 5 days, panel B, read-out: Relative viability)?
A: 93.1%

Q: What about the viability at 0.32 µM (A549 cells [3]; Homo sapiens, 120 h, Olaparib 0, Quizartinib 0.32 μM, 5 days, panel B, read-out: Relative viability) of the same compound?
A: 91.8%

Q: And the viability at 0.63 µM (A549 cells [3]; Homo sapiens, 120 h, Olaparib 0, Quizartinib 0.63 μM, 5 days, panel B, read-out: Relative viability)?
A: 93.9%

Q: And the viability at 1.25 µM (A549 cells [3]; Homo sapiens, 120 h, Olaparib 0, Quizartinib 1.25 μM, 5 days, panel B, read-out: Relative viability)?
A: 92.6%

Q: And the viability at 2.5 µM (A549 cells [3]; Homo sapiens, 120 h, Olaparib 0, Quizartinib 2.50 μM, 5 days, panel B, read-out: Relative viability)?
A: 87.5%

Q: And the viability at 5 µM (A549 cells [3]; Homo sapiens, 120 h, Olaparib 0, Quizartinib 5.00 μM, 5 days, panel B, read-out: Relative viability)?
A: 77.8%

Q: What about the viability at 10 µM (A549 cells [3]; Homo sapiens, 120 h, Olaparib 0, Quizartinib 10.00 μM, 5 days, panel B, read-out: Relative viability) of the same compound?
A: 64.6%

Q: What about the “Growth inhibition” value (A549 cells [3]; MTT, five days) of the same compound?
A: slightly inhibited the proliferation

Q: And the viability at 0.16 µM (H1299 cells [4]; Homo sapiens, NCI-H1299, 120 h, Olaparib 0, Quizartinib 0.16 μM, 5 days, panel B, read-out: Relative viability)?
A: 104%

Q: What about the viability at 0.32 µM (H1299 cells [4]; Homo sapiens, NCI-H1299, 120 h, Olaparib 0, Quizartinib 0.32 μM, 5 days, panel B, read-out: Relative viability) of the same compound?
A: 105%

Q: And the viability at 0.63 µM (H1299 cells [4]; Homo sapiens, NCI-H1299, 120 h, Olaparib 0, Quizartinib 0.63 μM, 5 days, panel B, read-out: Relative viability)?
A: 106%

Q: What about the viability at 1.25 µM (H1299 cells [4]; Homo sapiens, NCI-H1299, 120 h, Olaparib 0, Quizartinib 1.25 μM, 5 days, panel B, read-out: Relative viability) of the same compound?
A: 92.7%

Q: What about the viability at 2.5 µM (H1299 cells [4]; Homo sapiens, NCI-H1299, 120 h, Olaparib 0, Quizartinib 2.50 μM, 5 days, panel B, read-out: Relative viability) of the same compound?
A: 87.3%

Q: And the viability at 5 µM (H1299 cells [4]; Homo sapiens, NCI-H1299, 120 h, Olaparib 0, Quizartinib 5.00 μM, 5 days, panel B, read-out: Relative viability)?
A: 65.8%

Q: What about the viability at 10 µM (H1299 cells [4]; Homo sapiens, NCI-H1299, 120 h, Olaparib 0, Quizartinib 10.00 μM, 5 days, panel B, read-out: Relative viability) of the same compound?
A: 32.1%

Q: What about the “Growth inhibition” value (H1299 cells [4]; MTT, five days) of the same compound?
A: slightly inhibited the proliferation

Q: And the “Growth inhibition” value (BEAS2B cells)?
A: slightly inhibited the proliferation

Q: And the “Growth inhibition” value (CCD18-Lu cells)?
A: slightly inhibited the proliferation

Q: And the “Growth inhibition” value (H460 cells)?
A: slightly inhibited the proliferation
